Assay results reported in patent publication US12338253B2, “Nitrogen-containing polycyclic fused ring compound, pharmaceutical composition thereof, preparation method therefor and use thereof” (APPLIED PHARMACEUTICAL SCIENCE, INC., priority 2019, dated 2025).

Legend:
[1] = test system: TT Cell; experiment: TT cell activity test (CelltiterGlo, 72 h); assay type: cell-based, human; settings: for IC50: Homo sapiens, TT cell line, 72 h, CTG; for inhibitory activity on TT cells compared with cabozantinib: comparison in words
Procedure: 2.3 Data Processing % Inhibition (inhibition rate)=100*(HC−test compound well reading)/(HC−LC) • High control (HC, reading control without inhibition): 0.5% DMSO • Low control (LC, control with compound inhibition): 1 μM CEP-32496
The IC50 values were calculated using GraphPad Prism 6 software. Y=Bottom+(Top−Bottom)/(1+10^((Log IC50−X)*HillSlope)); • X: log of cpd concentration; • Y: % inhibition; • Top and Bottom: plateaus in same units as Y; • Log IC50: same log units as X; and • HillSlope: slope factor The Cell Results are Shown in Table 5: […]

[2] = molecular target: RET G810R (Homo sapiens (Human), UniProt P07949, G810R); experiment: HTRF kinase activity test, RET G810R; assay type: biochemical; settings: for IC50: HTRF KinEASE-TK; for inhibitory activity on RET G810R compared with cabozantinib and selpercatinib (LOXO-292): comparison in words
Sequence of RET G810R (P07949 29-1114 G810R): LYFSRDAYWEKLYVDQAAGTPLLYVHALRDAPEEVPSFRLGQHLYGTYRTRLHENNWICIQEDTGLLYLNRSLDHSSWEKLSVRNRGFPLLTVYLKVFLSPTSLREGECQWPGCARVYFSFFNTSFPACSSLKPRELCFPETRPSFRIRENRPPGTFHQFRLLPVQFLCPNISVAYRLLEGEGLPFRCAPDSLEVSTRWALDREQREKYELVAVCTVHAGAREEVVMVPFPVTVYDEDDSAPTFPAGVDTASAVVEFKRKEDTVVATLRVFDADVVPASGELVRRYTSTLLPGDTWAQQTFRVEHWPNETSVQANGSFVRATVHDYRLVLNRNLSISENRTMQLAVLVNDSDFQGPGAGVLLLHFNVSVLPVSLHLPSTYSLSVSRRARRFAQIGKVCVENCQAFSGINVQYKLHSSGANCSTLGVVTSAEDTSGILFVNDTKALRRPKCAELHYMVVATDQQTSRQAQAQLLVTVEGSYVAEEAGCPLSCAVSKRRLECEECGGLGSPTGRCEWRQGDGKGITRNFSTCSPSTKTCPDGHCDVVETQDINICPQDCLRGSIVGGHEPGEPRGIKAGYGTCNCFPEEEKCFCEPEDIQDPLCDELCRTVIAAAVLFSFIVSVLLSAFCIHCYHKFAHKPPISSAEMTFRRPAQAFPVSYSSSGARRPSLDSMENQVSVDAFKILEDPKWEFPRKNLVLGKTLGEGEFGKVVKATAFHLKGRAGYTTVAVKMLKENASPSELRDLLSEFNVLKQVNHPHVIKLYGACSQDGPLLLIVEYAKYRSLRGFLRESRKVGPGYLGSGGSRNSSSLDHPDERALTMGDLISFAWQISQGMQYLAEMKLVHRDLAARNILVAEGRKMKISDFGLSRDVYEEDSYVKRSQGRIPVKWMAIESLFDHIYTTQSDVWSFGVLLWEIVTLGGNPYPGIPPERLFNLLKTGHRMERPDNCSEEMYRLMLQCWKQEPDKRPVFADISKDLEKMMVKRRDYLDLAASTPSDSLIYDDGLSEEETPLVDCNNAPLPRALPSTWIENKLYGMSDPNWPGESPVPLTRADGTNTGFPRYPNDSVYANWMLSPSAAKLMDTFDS

| Compound | IC50 [1] [nM] | inhibitory activity on TT cells compared with cabozantinib [1] | IC50 [2] [nM] | inhibitory activity on RET G810R compared with cabozantinib and selpercatinib (LOXO-292) [2] |
| --- | --- | --- | --- | --- |
| COc1cc2nccc(Oc3ccc(NC(=O)C4(C(=O)Nc5ccc(F)cc5)CC4)cc3)c2cc1OC [Cabozantinib, reference compound] | 143 | – | – | – |
| COc1ccc(CN2C3CC2CN(c2ccc(-c4cc(Br)cn5nc6[nH]ncc6c45)cn2)C3)cn1 [Compound 2] | 42.2 | significantly better than that of cabozantinib | – | – |
| COc1ccc(CN2C3CC2CN(c2ccc(-c4cc(OCc5ccccc5)cn5nc6[nH]ncc6c45)cn2)C3)cn1 [Compound 3, 6-(benzyloxy)-4-(6-(6-((6-methoxypyridin-3-yl)methyl)-3,6-diazabicyclo[3.3.1]heptan-3-yl)pyridin-3-yl)-1H-pyrazolo[3′,4′:3,4]pyrazolo[1,5-a]pyridine] | 32.8 | significantly better than that of cabozantinib | 16.2 | significantly better than that of cabozantinib and selpercatinib (LOXO-292) |
| COc1ccc(CN2C3CC2CN(c2ccc(-c4cc(C#N)cn5nc6[nH]ncc6c45)cn2)C3)cn1 [Compound 5, 4-(6-(6-((6-methoxypyridin-3-yl)methyl)-3,6-diazabicyclo[3.3.1]heptan-3-yl)pyridin-3-yl)-1H-pyrazolo[3′,4′:3,4]pyrazolo[1,5-a]pyridine-6-carbonitrile] | 11.8 | significantly better than that of cabozantinib | 38.4 | significantly better than that of cabozantinib and selpercatinib (LOXO-292) |
| COc1ccc(CN2C3CC2CN(c2ccc(-c4cc(N)cn5nc6[nH]ncc6c45)cn2)C3)cn1 [Compound 6, 4-(6-(6-((6-methoxypyridin-3-yl)methyl)-3,6-diazabicyclo[3.3.1]heptan-3-yl)pyridin-3-yl)-1H-pyrazolo[3′,4′:3,4]pyrazolo[1,5-a]pyridin-6-amine] | 19.4 | significantly better than that of cabozantinib | – | – |
| COc1ccc(CN2C3CC2CN(c2ccc(-c4cc(OCC(C)(C)O)cn5nc6[nH]ncc6c45)cn2)C3)cn1 [Compound 8, 1-((4-(6-(6-((6-methoxypyridin-3-yl)methyl)-3,6-diazabicyclo[3.3.1]heptan-3-yl)pyridin-3-yl)-1H-pyrazolo[3′,4′:3,4]pyrazolo[1,5-a]pyridin-6-yl)oxy)-2-methylpropan-2-ol] | 14.4 | significantly better than that of cabozantinib | – | – |
| COc1ccc(CN2C3CC2CN(c2ccc(-c4cc(OCCO)cn5nc6[nH]ncc6c45)cn2)C3)cn1 [Compound 10] | 12.3 | significantly better than that of cabozantinib | 3.8 | significantly better than that of cabozantinib and selpercatinib (LOXO-292) |
| CCCCOc1cc(-c2ccc(N3CC4CC(C3)N4Cc3ccc(OC)nc3)nc2)c2c3cn[nH]c3nn2c1 [Compound 11] | 16.8 | significantly better than that of cabozantinib | 10.1 | significantly better than that of cabozantinib and selpercatinib (LOXO-292) |
| COc1ccc(CN2C3CC2CN(c2ccc(-c4cc(OCCCCF)cn5nc6[nH]ncc6c45)cn2)C3)cn1 [Compound 13] | 10.7 | significantly better than that of cabozantinib | 3.1 | significantly better than that of cabozantinib and selpercatinib (LOXO-292) |
| COc1ccc(CN2C3CC2CN(c2ccc(-c4cc(OCCCl)cn5nc6[nH]ncc6c45)cn2)C3)cn1 [Compound 14, 6-(2-chloroethoxy)-4-(6-(6-((6-methoxypyridin-3-yl)methyl)-3,6-diazabicyclo[3.3.1]heptan-3-yl)pyridin-3-yl)-1H-pyrazolo[3′,4′:3,4]pyrazolo[1,5-a]pyridine] | – | – | 2.2 | significantly better than that of cabozantinib and selpercatinib (LOXO-292) |
| COc1ccc(CN2C3CC2CN(c2ccc(-c4cc(OCCBr)cn5nc6[nH]ncc6c45)cn2)C3)cn1 [Compound 15, 6-(2-bromoethoxy)-4-(6-(6-((6-methoxypyridin-3-yl)methyl)-3,6-diazabicyclo[3.3.1]heptan-3-yl)pyridin-3-yl)-1H-pyrazolo[3′,4′:3,4]pyrazolo[1,5-a]pyridine] | – | – | 7.9 | significantly better than that of cabozantinib and selpercatinib (LOXO-292) |
| COc1ccc(CN2C3CC2CN(c2ccc(-c4cc(OC[C@@H]5CNCCO5)cn5nc6[nH]ncc6c45)cn2)C3)cn1 [Compound 17] | 11.3 | – | – | – |
| CCN(CC)C(=O)N1CCN(c2ccc(-c3cc(OCCF)cn4nc5[nH]ncc5c34)cn2)CC1 [Compound 18, N,N-diethyl-4-(5-(6-(2-fluoroethoxy)-1H-pyrazolo[3′,4′:3,4]pyrazolo[1,5-a]pyridin-4-yl)pyridin-2-yl)piperazine-1-carboxamide] | 78.2 | significantly better than that of cabozantinib | 18.9 | significantly better than that of cabozantinib and selpercatinib (LOXO-292) |
| O=C(Cc1ccccn1)N1CCN(c2ccc(-c3cc(OCCF)cn4nc5[nH]ncc5c34)cn2)CC1 [Compound 19, 1-(4-(5-(6-(2-fluoroethoxy)-1H-pyrazolo[3′,4′:3,4]pyrazolo[1,5-a]pyridin-4-yl)pyridin-2-yl)piperazin-1-yl)-2-(pyridin-2-yl)ethan-1-one] | 31.2 | significantly better than that of cabozantinib | 4.8 | significantly better than that of cabozantinib and selpercatinib (LOXO-292) |
| O=C([C@H](O)c1ccccc1)N1CCN(c2ccc(-c3cc(OCCF)cn4nc5[nH]ncc5c34)cn2)CC1 [Compound 20, (R)-1-(4-(5-(6-(2-fluoroethoxy)-1H-pyrazolo[3′,4′:3,4]pyrazolo[1,5-a]pyridin-4-yl)pyridin-2-yl)piperazin-1-yl)-2-hydroxy-2-phenylethan-1-one] | 27.8 | significantly better than that of cabozantinib | 1.6 | significantly better than that of cabozantinib and selpercatinib (LOXO-292) |
| CO[C@@H](C(=O)N1CCN(c2ccc(-c3cc(OCCF)cn4nc5[nH]ncc5c34)cn2)CC1)c1ccccc1 [Compound 21, (R)-1-(4-(5-(6-(2-fluoroethoxy)-1H-pyrazolo[3′,4′:3,4]pyrazolo[1,5-a]pyridin-4-yl)pyridin-2-yl)piperazin-1-yl)-2-methoxy-2-phenylethan-1-one] | 15.8 | significantly better than that of cabozantinib | 0.6 | significantly better than that of cabozantinib and selpercatinib (LOXO-292) |
| COc1ccc(C(=O)N2CCN(c3ccc(-c4cc(OCCF)cn5nc6[nH]ncc6c45)cn3)CC2)cn1 [Compound 22, (4-(5-(6-(2-fluoroethoxy)-1H-pyrazolo[3′,4′:3,4]pyrazolo[1,5-a]pyridin-4-yl)pyridin-2-yl)piperazin-1-yl)(6-methoxypyridin-3-yl)methanone] | 39.5 | significantly better than that of cabozantinib | 1.7 | significantly better than that of cabozantinib and selpercatinib (LOXO-292) |
| COc1ccc(CN2C3CC2CN(c2ccc(-c4cc(OCCOCC5CC5)cn5nc6[nH]ncc6c45)cn2)C3)cn1 [Compound 28, 6-(2-(cyclopropylmethoxy)ethoxy)-4-(6-(6-((6-methoxypyridin-3-yl)methyl)-3,6-diazabicyclo[3.3.1]heptan-3-yl)pyridin-3-yl)-1H-pyrazolo[3′,4′:3,4]pyrazolo[1,5-a]pyridine] | 64.3 | significantly better than that of cabozantinib | – | – |
| COc1ccc(CN2C3CC2CN(c2ccc(-c4cc(OC(C)C)cn5nc6[nH]ncc6c45)cn2)C3)cn1 [Compound 29] | 60.8 | significantly better than that of cabozantinib | – | – |
| COc1ccc(CN2C3CC2CN(c2ccc(-c4cc(OC(F)F)cn5nc6[nH]ncc6c45)cn2)C3)cn1 [Compound 33, 6-(difluoromethoxy)-4-(6-(6-((6-methoxypyridin-3-yl)methyl)-3,6-diazabicyclo[3.3.1]heptan-3-yl)pyridin-3-yl)-1H-pyrazolo[3′,4′:3,4]pyrazolo[1,5-a]pyridine] | 350 | – | – | – |
| COc1ccc(CN2C3CC2CN(c2ccc(-c4cc(OCCOC5CC5)cn5nc6[nH]ncc6c45)cn2)C3)cn1 [Compound 34] | 81.8 | significantly better than that of cabozantinib | – | – |
| CCOc1cc(-c2ccc(N3CC4CC(C3)N4Cc3ccc(OC)nc3)nc2)c2c3c(C)n[nH]c3nn2c1 [Compound 35] | 296 | – | – | – |
| COc1ccc(CN2C3CC2CN(c2ccc(-c4cc(OCC5CC5)cn5nc6[nH]ncc6c45)cn2)C3)cn1 [Compound 37, 6-(cyclopropylmethoxy)-4-(6-(6-((6-methoxypyridin-3-yl)methyl)-3,6-diazabicyclo[3.3.1]heptan-3-yl)pyridin-3-yl)-1H-pyrazolo[3′,4′:3,4]pyrazolo[1,5-a]pyridine] | 29.2 | significantly better than that of cabozantinib | – | – |
